# Biological target: T1, glucocorticoid receptor (Homo sapiens, UniProt P04150)
# T1 construct: endogenous in cells; ATCC cat
# T1 sequence (P04150 1-777): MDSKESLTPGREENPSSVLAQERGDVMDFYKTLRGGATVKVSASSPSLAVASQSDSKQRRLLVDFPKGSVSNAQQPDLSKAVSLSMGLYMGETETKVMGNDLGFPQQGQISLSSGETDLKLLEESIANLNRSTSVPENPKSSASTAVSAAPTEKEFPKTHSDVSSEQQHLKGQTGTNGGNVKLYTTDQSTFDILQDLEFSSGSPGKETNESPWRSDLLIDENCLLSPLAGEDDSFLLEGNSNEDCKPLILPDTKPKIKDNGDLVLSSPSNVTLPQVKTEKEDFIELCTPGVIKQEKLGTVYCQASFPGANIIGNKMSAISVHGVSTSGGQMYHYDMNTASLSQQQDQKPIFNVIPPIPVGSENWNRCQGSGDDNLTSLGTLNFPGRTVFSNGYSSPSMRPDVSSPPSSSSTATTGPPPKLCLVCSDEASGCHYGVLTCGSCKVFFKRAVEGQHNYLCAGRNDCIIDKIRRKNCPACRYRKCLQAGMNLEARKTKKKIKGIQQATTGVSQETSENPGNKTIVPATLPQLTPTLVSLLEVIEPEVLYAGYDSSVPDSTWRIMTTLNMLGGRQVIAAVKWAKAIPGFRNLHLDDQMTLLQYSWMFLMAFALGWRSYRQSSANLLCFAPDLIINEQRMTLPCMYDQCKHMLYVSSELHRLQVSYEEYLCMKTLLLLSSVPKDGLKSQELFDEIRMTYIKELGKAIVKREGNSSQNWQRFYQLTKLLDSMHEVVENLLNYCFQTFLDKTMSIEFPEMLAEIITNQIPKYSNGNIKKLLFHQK
# Experiment: Hep G2 TAT Ki: inhibition of dexamethasone-induced TAT in HepG2 cells (96 well)
# Type: cell-based
# Conditions: challenge of 100 nM dexamethasone, IC50 converted to Ki by Cheng and Prusoff equation
# Procedure, shortened: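 Cells lysed 15 min at 4 °C; TAT enzyme reaction 2 h at 37 °C, stopped with KOH, 30 min further at 37 °C. Inhibition fitted to 4-parameter logistic.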
row,Compound,Ki [µM]
1,"CC(=O)N1CCN(S(=O)(=O)c2cnn(C)n2)CC1c1cc2cnn(-c3ccc(F)cc3)c2cc1C (stereo not shown) [Example 34, 1-(2-(1-(4-fluorophenyl)-6-methyl-1H-indazol-5-yl)-4-((2-methyl-2H-1,2,3-triazol-4-yl)sulfonyl)piperazin-1-yl)ethan-1-one]",0.43
2,"Cc1cc2c(cnn2-c2ccc(F)cc2)cc1C1CN(C(=O)C(C)O)CCN1CC(C)C (stereo not shown) [Example 65, 1-(3-(1-(4-fluorophenyl)-6-methyl-1H-indazol-5-yl)-4-isobutylpiperazin-1-yl)-2-hydroxypropan-1-one]",0.37
3,"Cc1cc2c(cnn2-c2ccc(F)cc2)cc1C1CN(S(=O)(=O)c2cnn(C)n2)CCN1CCCC(F)(F)F (stereo not shown) [Example 68, 1-(4-fluorophenyl)-6-methyl-5-(4-((2-methyl-2H-1,2,3-triazol-4-yl)sulfonyl)-1-(4,4,4-trifluorobutyl)piperazin-2-yl)-1H-indazole]",0.058
4,"Cc1cc2c(cnn2-c2ccc(F)cc2)cc1C1CN(S(=O)(=O)c2cnn(C)n2)CCN1CC1CC1C (stereo not shown) [Example 14, 1-(4-fluorophenyl)-6-methyl-5-(4-((2-methyl-2H-1,2,3-triazol-4-yl)sulfonyl)-1-((2-methylcyclopropyl)methyl)piperazin-2-yl)-1H-indazole]",0.062
5,"Cc1cc2c(cnn2-c2ccc(F)cc2)cc1C1CN(S(=O)(=O)c2cnn(C(C)C)n2)CCN1CC(C)C (stereo not shown) [Example 37, 1-(4-fluorophenyl)-5-(1-isobutyl-4-((2-isopropyl-2H-1,2,3-triazol-4-yl)sulfonyl)piperazin-2-yl)-6-methyl-1H-indazole]",0.076
6,"Cc1cc2c(cnn2-c2ccc(F)cc2)cc1C1CN(S(=O)(=O)N(C)C2CC2)CCN1CC(C)C (single isomer, unassigned) [Example 62, N-cyclopropyl-3-(1-(4-fluorophenyl)-6-methyl-1H-indazol-5-yl)-4-isobutyl-N-methylpiperazine-1-sulfonamide]",0.044
7,"Cc1cc2c(cnn2-c2ccc(F)cc2)cc1C1CN(S(=O)(=O)c2cnn(C)n2)CCN1Cc1cccnc1 (stereo not shown) [Example 18, 1-(4-fluorophenyl)-6-methyl-5-(4-((2-methyl-2H-1,2,3-triazol-4-yl)sulfonyl)-1-(pyridin-3-ylmethyl)piperazin-2-yl)-1H-indazole]",0.33
8,"CC(C)=CCN1CCN(S(=O)(=O)c2cnn(C)n2)CC1c1cc2cnn(-c3ccc(F)cc3)c2cc1C (stereo not shown) [Example 17, 1-(4-fluorophenyl)-6-methyl-5-(4-((2-methyl-2H-1,2,3-triazol-4-yl)sulfonyl)-1-(3-methylbut-2-en-1-yl)piperazin-2-yl)-1H-indazole]",0.11
9,"Cc1cc2c(cnn2-c2ccc(F)cc2)cc1C1CN(S(=O)(=O)c2cnn(C)n2)CCN1CC(C)C(F)(F)F (single isomer, unassigned) [Example 33]",0.011
10,"Cc1cc2c(cnn2-c2ccc(F)cc2)cc1[C@@H]1CN(S(=O)(=O)c2cnn(C)n2)CCN1C[C@@H](C)C(F)(F)F [Example 32, 1-(4-fluorophenyl)-6-methyl-5-((R)-4-((2-methyl-2H-1,2,3-triazol-4-yl)sulfonyl)-1-((R)-3,3,3-trifluoro-2-methylpropyl)piperazin-2-yl)-1H-indazole]",0.019
11,"Cc1cc2c(cnn2-c2ccc(F)cc2)cc1C1CN(S(=O)(=O)c2cnn(C3CCOCC3)c2)CCN1CC(C)C (stereo not shown) [Example 36, 1-(4-fluorophenyl)-5-(1-isobutyl-4-((1-(tetrahydro-2H-pyran-4-yl)-1H-pyrazol-4-yl)sulfonyl)piperazin-2-yl)-6-methyl-1H-indazole]",0.05
12,"Cc1cc2c(cnn2-c2ccc(F)cc2)cc1C1CN(S(=O)(=O)c2cncc(F)c2)CCN1CC(C)C (stereo not shown) [Example 43, 1-(4-fluorophenyl)-5-(4-((5-fluoropyridin-3-yl)sulfonyl)-1-isobutylpiperazin-2-yl)-6-methyl-1H-indazole]",0.076
13,"Cc1cc2c(cnn2-c2ccc(F)cc2)cc1C1CN(S(=O)(=O)C2CCOCC2)CCN1CC(C)C (stereo not shown) [Example 44, 1-(4-fluorophenyl)-5-(1-isobutyl-4-((tetrahydro-2H-pyran-4-yl)sulfonyl)piperazin-2-yl)-6-methyl-1H-indazole]",0.093
14,"Cc1cc2c(cnn2-c2ccc(F)cc2)cc1C1CN(S(=O)(=O)c2cnn(C)n2)CCN1CC(C)C(F)(F)F (single isomer, unassigned) [Example 21, 1-(4-fluorophenyl)-6-methyl-5-(4-((2-methyl-2H-1,2,3-triazol-4-yl)sulfonyl)-1-(3,3,3-trifluoro-2-methylpropyl)piperazin-2-yl)-1H-indazole]",0.12

# Further lines, results first:
row,Ki [µM],Compound
1,0.043,"Cc1cc2c(cnn2-c2ccc(F)cc2)cc1C1CN(S(=O)(=O)c2cn(CC(F)F)nc2C)CCN1CC(C)C (single isomer, unassigned) [Example 96, 5-(4-((1-(2,2-difluoroethyl)-3-methyl-1H-pyrazol-4-yl)sulfonyl)-1-isobutylpiperazin-2-yl)-1-(4-fluorophenyl)-6-methyl-1H-indazole]"
2,0.059,"Cc1cc2c(cnn2-c2cccnc2)cc1C1CN(S(=O)(=O)c2cnn(C)n2)CCN1CCC(F)(F)F (stereo not shown) [Example 167, 6-methyl-5-(4-((2-methyl-2H-1,2,3-triazol-4-yl)sulfonyl)-1-(3,3,3-trifluoropropyl)piperazin-2-yl)-1-(pyridin-3-yl)-1H-indazole]"
3,0.057,"COCCn1cc(S(=O)(=O)N2CCN(CCC(F)(F)F)C(c3cc4cnn(-c5ccc(F)cc5)c4cc3C)C2)cn1 (single isomer, unassigned) [Example 136, 1-(4-fluorophenyl)-5-(4-((1-(2-methoxyethyl)-1H-pyrazol-4-yl)sulfonyl)-1-(3,3,3-trifluoropropyl)piperazin-2-yl)-6-methyl-1H-indazole]"
4,0.055,"Cc1cc2c(cnn2-c2ccc(F)cc2)cc1C1CN(S(=O)(=O)Cc2ccc(C#N)cc2)CCN1CC(C)C (single isomer, unassigned) [Example 114, 4-(((3-(1-(4-fluorophenyl)-6-methyl-1H-indazol-5-yl)-4-isobutylpiperazin-1-yl)sulfonyl)methyl)benzonitrile]"
5,0.16,"Cc1cc2c(cnn2-c2ccc(F)cc2)cc1C1CN(S(=O)(=O)c2cnn(C)n2)CCN1CC1CCC1 (single isomer, unassigned) [Example 74, 5-(1-(cyclobutylmethyl)-4-((2-methyl-2H-1,2,3-triazol-4-yl)sulfonyl)piperazin-2-yl)-1-(4-fluorophenyl)-6-methyl-1H-indazole]"
6,0.013,"Cc1cc2c(cnn2-c2ccc(F)cc2)cc1C1CN(S(=O)(=O)c2cnn(C)n2)CCN1CC1CCCC1 (single isomer, unassigned) [Example 78, 5-(1-(cyclopentylmethyl)-4-((2-methyl-2H-1,2,3-triazol-4-yl)sulfonyl)piperazin-2-yl)-1-(4-fluorophenyl)-6-methyl-1H-indazole]"
7,0.22,"CC(C)CN1CCN(S(=O)(=O)c2cnn(C)n2)CC1c1cc2cnn(-c3ccc(F)cc3)c2cc1F (stereo not shown) [Example 159, 6-fluoro-1-(4-fluorophenyl)-5-(1-isobutyl-4-((2-methyl-2H-1,2,3-triazol-4-yl)sulfonyl)piperazin-2-yl)-1H-indazole]"
8,0.036,"Cc1cc2c(cnn2-c2ccc(F)cc2)cc1C1CN(S(=O)(=O)c2nn(C)nc2C)CCN1CC(C)C (single isomer, unassigned) [Example 93, 5-(4-((2,5-dimethyl-2H-1,2,3-triazol-4-yl)sulfonyl)-1-isobutylpiperazin-2-yl)-1-(4-fluorophenyl)-6-methyl-1H-indazole]"
